{"source": "paper PMC10419083", "about": "“Actions of a Novel Bacterial Topoisomerase Inhibitor against Neisseria gonorrhoeae Gyrase and Topoisomerase IV: Enhancement of Double-Stranded DNA Breaks” (International Journal of Molecular Sciences, 2023)", "target": "T1, human topoisomerase IIα (Homo sapiens, UniProt P11388)", "T1 construct": "gene TOP2A; recombinant wild-type, expressed in Saccharomyces cerevisiae and purified", "T1 sequence (P11388 whole entry)": "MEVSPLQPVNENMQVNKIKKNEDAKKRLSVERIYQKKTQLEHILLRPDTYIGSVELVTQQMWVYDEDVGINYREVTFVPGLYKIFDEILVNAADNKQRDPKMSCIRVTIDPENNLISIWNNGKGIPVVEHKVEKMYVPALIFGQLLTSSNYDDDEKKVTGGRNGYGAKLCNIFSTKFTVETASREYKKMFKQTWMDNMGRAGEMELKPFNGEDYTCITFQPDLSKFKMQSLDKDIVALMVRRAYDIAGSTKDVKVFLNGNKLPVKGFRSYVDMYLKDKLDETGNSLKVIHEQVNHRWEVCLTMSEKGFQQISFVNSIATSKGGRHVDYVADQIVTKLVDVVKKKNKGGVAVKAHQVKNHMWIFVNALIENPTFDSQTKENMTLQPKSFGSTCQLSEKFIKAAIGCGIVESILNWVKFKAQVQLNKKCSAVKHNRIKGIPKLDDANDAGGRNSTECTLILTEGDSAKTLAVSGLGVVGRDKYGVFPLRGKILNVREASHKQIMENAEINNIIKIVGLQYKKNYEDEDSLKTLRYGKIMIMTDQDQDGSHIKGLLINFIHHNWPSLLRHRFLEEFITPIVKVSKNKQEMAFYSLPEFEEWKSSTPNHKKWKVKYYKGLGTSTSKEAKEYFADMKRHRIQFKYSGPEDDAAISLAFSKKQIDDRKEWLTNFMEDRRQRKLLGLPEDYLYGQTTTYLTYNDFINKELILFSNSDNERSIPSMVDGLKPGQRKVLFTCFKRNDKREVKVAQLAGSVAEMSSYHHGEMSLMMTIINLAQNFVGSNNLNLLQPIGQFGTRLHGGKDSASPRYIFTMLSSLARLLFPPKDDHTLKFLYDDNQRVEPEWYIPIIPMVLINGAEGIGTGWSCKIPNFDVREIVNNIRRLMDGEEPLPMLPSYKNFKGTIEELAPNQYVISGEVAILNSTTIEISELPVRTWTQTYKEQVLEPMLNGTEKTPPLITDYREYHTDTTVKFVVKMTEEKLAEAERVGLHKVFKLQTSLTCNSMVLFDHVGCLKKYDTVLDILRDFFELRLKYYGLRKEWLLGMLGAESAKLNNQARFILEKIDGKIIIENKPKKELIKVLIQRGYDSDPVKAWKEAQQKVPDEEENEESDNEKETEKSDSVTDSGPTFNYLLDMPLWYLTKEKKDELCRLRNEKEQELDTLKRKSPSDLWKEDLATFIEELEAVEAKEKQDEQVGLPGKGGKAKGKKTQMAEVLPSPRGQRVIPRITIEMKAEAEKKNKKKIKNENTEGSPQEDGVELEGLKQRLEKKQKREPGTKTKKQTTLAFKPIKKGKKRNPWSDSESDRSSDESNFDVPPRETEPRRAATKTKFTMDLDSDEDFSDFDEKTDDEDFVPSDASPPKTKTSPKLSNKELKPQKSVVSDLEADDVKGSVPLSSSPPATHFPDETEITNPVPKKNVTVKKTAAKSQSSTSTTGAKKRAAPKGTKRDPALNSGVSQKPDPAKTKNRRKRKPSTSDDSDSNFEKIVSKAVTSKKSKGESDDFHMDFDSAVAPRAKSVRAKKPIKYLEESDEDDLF", "test": "DNA cleavage assay, pBR322, agarose gel", "assay_type": "biochemical", "conditions": "single-stranded and double-stranded DNA break induction; 300 nM enzyme, 25 mM MgCl2, 500 mM KCl, pH 7.9, 37 °C, 10 min"}
{"smiles": "COc1ccc2nccc(CC[C@H]3OC[C@H](NC(=O)c4ccc5c(c4)NC(=O)CO5)CO3)c2c1", "note": "[OSUAB-185]", "values": [{"measurement": "CC50", "value": "reasonable activity against the human type II enzyme, with CC50 values in the low µM"}]}
